From US6383773B2, “Penicillin conversion” (Massachusetts Institute of Technology, priority 1998, dated 2002)

What was measured:
[1] = system: S. clavuligerus NP1 resting cells; experiment: Penicillin G ring expansion by resting cells, paper disc-agar diffusion bioassay (Example 1); format: cell-based; details: for DAOG produced: after 3-6 hours of reaction
Method: Resting Cells: From a seed culture (in MST), 0.5 ml was transferred to new flasks containing 40 ml of the same medium. Cells were grown at 30° C., 250 rpm for 24 h. Mycelia from each flask were washed twice, and finally, resuspended in 10 ml of distilled water. Four ml of this cell suspension were used in the reaction mixture.
(§1) Ring Expansion Reaction: We defined ring expansion reaction conditions as modifications of the standard reaction mixture for expandase reactions described by Maeda et al. (Maeda et al., Enzyme Microb. Technol. 17:231-34, 1995) except that penicillin G was used a substrate instead of penicillin N. Additions were made following the order established by Shen et al. (Shen et al., Enzyme Microb. Technol. 6:402-404, 1984. Reaction mixtures were incubated in test tubes (cell-free extract) or 250 ml baffled flasks (resting cells) at 220 rpm, 30° C. Reactions containing the protein extract were stopped at various times (see Table 1 and Figure Legends) by mixing 0.5 ml of assay solution with 0.5 ml of methanol. In the case of resting cells, samples were centrifuged to remove cells and supernatants were transferred to new tubes. Expandase activity was detected by paper disc-agar diffusion bioassay.
(§2) Detection of Expandase Activity: As mentioned above, expandase activity was detected by assaying production of a growth-inhibitory zone in a paper disc-agar diffusion bioassay. Paper discs were saturated with 200 μl of the reaction mixture (cell-free extracts or supernatant (resting cells) as follows. Two discs were superimposed and four 50 μl samples were applied. After each application, the discs were allowed to dry for 20 min at 37° C. under a laminar hood and, finally, they were placed on LB (1% tryptone, 0.5% NaCl, 0.5% yeast extract, 0.1% glucose) 0.8% agar medium seeded with E. coli ESS (a β-lactam supersensitive mutant), and the plates were incubated overnight at 37° C. The formation of DAOG and/or other cephalosporin(s) was determined by including 50,000 IU/ml of penicillinase (Difco Bacto penase concentrate, Difco Laboratories, Detroit, Mich.) in the assay plates. This penicillinase is a narrow spectrum β-lactamase that attacks penicillins but not cephalosporins. The diameters of zones of growth inhibition were measured and quantified with a calibration curve using DAOG as standard.

[2] = molecular target: T1, S. clavuligerus expandase (Streptomyces clavuligerus, UniProt P18548); experiment: Penicillin ring expansion by cell-free S. clavuligerus expandase extracts, paper disc-agar diffusion bioassay; format: biochemical; details: for DAOG: cell-free extract
T1 construct: endogenous in cells; host or cells: S. clavuligerus mutant NP1, crude cell-free extract
T1 sequence (P18548 whole entry, the tested form may be a part): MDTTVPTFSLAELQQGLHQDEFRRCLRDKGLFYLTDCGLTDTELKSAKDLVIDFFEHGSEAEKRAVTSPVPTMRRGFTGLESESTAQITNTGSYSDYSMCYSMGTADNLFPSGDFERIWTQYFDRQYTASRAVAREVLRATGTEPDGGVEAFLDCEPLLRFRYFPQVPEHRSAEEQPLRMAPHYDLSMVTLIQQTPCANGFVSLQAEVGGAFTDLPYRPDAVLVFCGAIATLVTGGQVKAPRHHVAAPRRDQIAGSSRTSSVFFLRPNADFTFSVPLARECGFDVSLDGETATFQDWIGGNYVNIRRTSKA
Method: Preparation of Cell-free Extracts: Fermentation broths were centrifuged at 8,000×g and 4° C. for 10 min. Pellets were washed twice using 50 mM Tris-HCI supplemented with 0.1 mM dithiothreitol (DTT). The cells were resuspended in the same buffer and disrupted by four 25-sec. sonication treatments (power setting 5 and duty cycle 50%), in an ice-water bath using a Branson 350 sonifier (Branson Sonic Power Co., Danbury, Conn.). Cell debris was removed by centrifugation (14,000×g, 30 min., 4° C.). The resulting extracts containing 8-10 mg protein/ml were placed on ice and utilized immediately. Protein concentrations were measured using the Bio-Rad protein assay (Bio-Rad, Hercules, Calif.). Bovine serum albumin was used as standard.
as §1, §2
Ring Expansion of Other Penicillins by Cell-free Extracts: We tested our reaction conditions for their ability to support ring expansion on other penicillin substrates and found detectable expansion with each of the 15 substrates that we tested. […] The reactions contained 4 mg/ml extract (protein concentration), 50 mM Tris-HCl pH 7.4, 1.8 mM FeSO4, 1.28 mM α-ketoglutarate, 8 mM MgSO4, 8 mM KCl, 4 mM ascorbic acid, 14 mM DTT, and 2 mg/ml substrate (except for penicillin mX and octanoyl-6-APA, which were used at 3 mg/ml). Samples were centrifuged at 12K rpm for 5 minutes after 2 hours of reaction. 250 μl of reaction mixture was used in each bioassay.

Compound: CC1(C)S[C@@H]2[C@H](NC(=O)Cc3ccccc3)C(=O)N2[C@H]1C(=O)O [Penicillin G, penicillin G]
- μg DAOG/ml ([1]; resting cells 13 mg/ml dry cell weight, 2 mg/ml penicillin G, 2 h, cofactor omitted: ATP (0.7 mM)): 10.0 μg DAOG/ml
- μg DAOG/ml ([1]; resting cells 13 mg/ml dry cell weight, 2 mg/ml penicillin G, 2 h, cofactor omitted: Ascorbic acid (4 mM)): 3.0 μg DAOG/ml
- μg DAOG/ml ([1]; resting cells 13 mg/ml dry cell weight, 2 mg/ml penicillin G, 2 h, cofactor omitted: DTT (16 mM)): 15.5 μg DAOG/ml
- μg DAOG/ml ([1]; resting cells 13 mg/ml dry cell weight, 2 mg/ml penicillin G, 2 h, cofactor omitted: FeSO4.7H2O (1.8 mM)): 3.2 μg DAOG/ml
- μg DAOG/ml ([1]; resting cells 13 mg/ml dry cell weight, 2 mg/ml penicillin G, 2 h, cofactor omitted: KCl (8 mM)): 11.5 μg DAOG/ml
- μg DAOG/ml ([1]; resting cells 13 mg/ml dry cell weight, 2 mg/ml penicillin G, 2 h, cofactor omitted: MgSO4.7H2O (8 mM)): 10.1 μg DAOG/ml
- μg DAOG/ml ([1]; resting cells 13 mg/ml dry cell weight, 2 mg/ml penicillin G, 2 h, cofactor omitted: None): 10.5 μg DAOG/ml
- μg DAOG/ml ([1]; resting cells 13 mg/ml dry cell weight, 2 mg/ml penicillin G, 2 h, cofactor omitted: α-ketoglutarate (1.28 mM)): 3.7 μg DAOG/ml
- DAOG produced ([1]; resting cells, Maeda et al. reaction conditions (0.04 mM FeSO4, 0.64 mM α-ketoglutarate)): about 6 μg/ml
- DAOG produced ([1]; resting cells, inventive conditions (1.8 mM FeSO4, 1.28 mM α-ketoglutarate)): about 19 μg/ml
- DAOG produced relative to complete reaction ([1]; resting cells, two hours, omission of Fe2+, α-ketoglutarate, or ascorbic acid): about 30%
- μg DAOG/ml ([1]; resting cells, ATP concentration 0 (mM)): 6.6 μg DAOG/ml
- μg DAOG/ml ([1]; resting cells, ATP concentration 0.14 (mM)): 6.4 μg DAOG/ml
- μg DAOG/ml ([1]; resting cells, ATP concentration 0.35 (mM)): 6.4 μg DAOG/ml
- μg DAOG/ml ([1]; resting cells, ATP concentration 0.7 (mM)): 6.6 μg DAOG/ml
- μg DAOG/ml ([1]; resting cells, ATP concentration 2.4 (mM)): 6.6 μg DAOG/ml
- μg DAOG/ml ([1]; resting cells, ATP concentration 3.5 (mM)): 4.7 μg DAOG/ml
- μg DAOG/ml ([1]; resting cells, Ascorbate concentration 0 (mM)): 2.4 μg DAOG/ml
- μg DAOG/ml ([1]; resting cells, Ascorbate concentration 0.8 (mM)): 4.0 μg DAOG/ml
- μg DAOG/ml ([1]; resting cells, Ascorbate concentration 2 (mM)): 6.0 μg DAOG/ml
- μg DAOG/ml ([1]; resting cells, Ascorbate concentration 4 (mM)): 6.4 μg DAOG/ml
- μg DAOG/ml ([1]; resting cells, Ascorbate concentration 8 (mM)): 6.4 μg DAOG/ml
- increase of DAOG production ([1]; resting cells, omission of DTT): approximately 50%
- Ring expansion, size of zones of inhibition ([2]; 4 mg/ml extract protein, 2 mg/ml substrate (penicillin mX and octanoyl-6-APA 3 mg/ml), 2 hours): Large zones of inhibition
- Inhibition Zone Diameter ([2]; 4 mg/ml extract protein, 2 mg/ml substrate, 2 hours of reaction, 250 μl in bioassay (E. coli ESS, penicillinase)): 29 mm
- DAOG ([2]; protein 1 mg/ml, FeSO4 0.036 mM, α-ketoglutarate 0.64 mM, penicillin G 0.1 mg/ml): <2 µg/mL
- DAOG ([2]; protein 1 mg/ml, FeSO4 0.036 mM, α-ketoglutarate 0.64 mM, penicillin G 0.3 mg/ml): <2 µg/mL
- DAOG ([2]; protein 1 mg/ml, FeSO4 0.036 mM, α-ketoglutarate 0.64 mM, penicillin G 1 mg/ml): 2.1 µg/mL
- DAOG ([2]; protein 1 mg/ml, FeSO4 1.8 mM, α-ketoglutarate 1.28 mM, penicillin G 0.1 mg/ml): <2 µg/mL
- DAOG ([2]; protein 1 mg/ml, FeSO4 1.8 mM, α-ketoglutarate 1.28 mM, penicillin G 0.3 mg/ml): <2 µg/mL
- DAOG ([2]; protein 1 mg/ml, FeSO4 1.8 mM, α-ketoglutarate 1.28 mM, penicillin G 1 mg/ml): 2.1 µg/mL
- DAOG ([2]; protein 2 mg/ml, FeSO4 0.036 mM, α-ketoglutarate 0.64 mM, penicillin G 0.1 mg/ml): <2 µg/mL
- DAOG ([2]; protein 2 mg/ml, FeSO4 0.036 mM, α-ketoglutarate 0.64 mM, penicillin G 0.3 mg/ml): 2.1 µg/mL
- DAOG ([2]; protein 2 mg/ml, FeSO4 0.036 mM, α-ketoglutarate 0.64 mM, penicillin G 1 mg/ml): 2.6 µg/mL
- DAOG ([2]; protein 2 mg/ml, FeSO4 1.8 mM, α-ketoglutarate 1.28 mM, penicillin G 0.1 mg/ml): 2.1 µg/mL
- DAOG ([2]; protein 2 mg/ml, FeSO4 1.8 mM, α-ketoglutarate 1.28 mM, penicillin G 0.3 mg/ml): 2.3 µg/mL
- DAOG ([2]; protein 2 mg/ml, FeSO4 1.8 mM, α-ketoglutarate 1.28 mM, penicillin G 1 mg/ml): 3.4 µg/mL
- DAOG ([2]; protein 4 mg/ml, FeSO4 0.036 mM, α-ketoglutarate 0.64 mM, penicillin G 0.1 mg/ml): 2.3 µg/mL
- DAOG ([2]; protein 4 mg/ml, FeSO4 0.036 mM, α-ketoglutarate 0.64 mM, penicillin G 0.3 mg/ml): 2.6 µg/mL
- DAOG ([2]; protein 4 mg/ml, FeSO4 0.036 mM, α-ketoglutarate 0.64 mM, penicillin G 1 mg/ml): 3.4 µg/mL
- DAOG ([2]; protein 4 mg/ml, FeSO4 1.8 mM, α-ketoglutarate 1.28 mM, penicillin G 0.1 mg/ml): 2.8 µg/mL
- DAOG ([2]; protein 4 mg/ml, FeSO4 1.8 mM, α-ketoglutarate 1.28 mM, penicillin G 0.3 mg/ml): 3.4 µg/mL
- DAOG ([2]; protein 4 mg/ml, FeSO4 1.8 mM, α-ketoglutarate 1.28 mM, penicillin G 1 mg/ml): 5.6 µg/mL
